Results taken from patent US20230203043A1, “NOVEL IMIDAZOPYRAZINE DERIVATIVES” (Hoffmann-La Roche Inc., priority 2020, published 2023).
Structures can show the parent of a compound that is named as a salt.

tested on: Acinetobacter baumannii ATCC17961; test: Antimicrobial susceptibility testing: 90% growth inhibitory concentration (IC90) determination in Iso-Sensitest broth, OD600 growth; assay type: cell-based; settings: Acinetobacter baumannii, ATCC17961, 16 h, read-out: A. baumannii ATCC 17961 IC90 (uM), strain ATCC 17961, OD600 growth over 16 h
Outline: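 Twofold compound dilutions (e.g. 50 to 0.097 μM final) in Iso-Sensitest broth with ~5×10^(5) CFU/ml, 35±2 °C. OD600 read every 20 min over 16 h; IC90 from growth inhibition during logarithmic phase.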

Compound | IC90 [µM]
C[C@@H](NC(=O)c1ccc(Nc2nccn3c(-c4cn(CC#N)nc4C(F)(F)F)cnc23)cc1Cl)C(=O)N1CCNCC1 [Example 647, 2-chloro-4-[[3-[1-(cyanomethyl)-3-(trifluoromethyl)pyrazol-4-yl]imidazo[1,2-a]pyrazin-8-yl]amino]-N-[(1R)-1-methyl-2-oxo-2-piperazin-1-yl-ethyl]benzamide formate] | 0.244
CCc1cc(Nc2nccn3c(-c4cn(CC#N)nc4C(F)(F)F)cnc23)ccc1C(=O)NCCCNC(=O)[C@@H](C)N [Example 626, (R)-N-(3-(2-aminopropanamido)propyl)-4-((3-(1-(cyanomethyl)-3-(trifluoromethyl)-1H-pyrazol-4-yl)imidazo[1,2-a]pyrazin-8-yl)amino)-2-ethylbenzamide formate] | 0.233
N[C@H]1CC[C@H](C(=O)N2CCN(C(=O)c3ccc(Nc4nccn5c(-c6c[nH]nc6C(F)(F)F)cnc45)cc3Cl)CC2)C1 [Example 575, (4-((1S,3S)-3-aminocyclopentane-1-carbonyl)piperazin-1-yl)(2-chloro-4-((3-(3-(trifluoromethyl)-1H-pyrazol-4-yl)imidazo[1,2-a]pyrazin-8-yl)amino)phenyl)methanone formate] | 0.175
CCc1cc(Nc2nccn3c(-c4cn(CC#N)nc4C(F)(F)F)cnc23)ccc1C(=O)N[C@H](C)C(=O)N1CCC(N)CC1 [Example 697, N-[(1R)-2-(4-amino-1-piperidyl)-1-methyl-2-oxo-ethyl]-4-[[3-[1-(cyanomethyl)-3-(trifluoromethyl)pyrazol-4-yl]imidazo[1,2-a]pyrazin-8-yl]amino]-2-ethyl-benzamide formate] | 0.371
CCc1cc(Nc2nccn3c(-c4cn(CC(F)F)nc4C(F)(F)F)cnc23)ccc1C(=O)NCC(=O)NC1C2CNCC21 (stereo not shown) [Example 529, N-[2-(3-azabicyclo[3.1.0]hexan-6-ylamino)-2-oxo-ethyl]-4-[[3-[1-(2,2-difluoroethyl)-3-(trifluoromethyl)pyrazol-4-yl]imidazo[1,2-a]pyrazin-8-yl]amino]-2-ethyl-benzamide formate] | 0.248
O=C(CC1CCNCC1)N1CCN(C(=O)c2ccc(Nc3nccn4c(-c5cn(CC(F)F)nc5C(F)(F)F)cnc34)cc2Cl)CC1 [Example 578, 1-(4-(2-chloro-4-((3-(1-(2,2-difluoroethyl)-3-(trifluoromethyl)-1H-pyrazol-4-yl)imidazo[1,2-a]pyrazin-8-yl)amino)benzoyl)piperazin-1-yl)-2-(piperidin-4-yl) ethan-1-one formate] | 0.394
CCc1cc(Nc2nccn3c(-c4cn(CC#N)nc4C(F)(F)F)cnc23)ccc1C(=O)N[C@H](C)C(=O)N[C@@H]1CCNC1 [Example 803, 4-[[3-[1-(cyanomethyl)-3-(trifluoromethyl)pyrazol-4-yl]imidazo[1,2-a]pyrazin-8-yl]amino]-2-ethyl-N-[(1R)-1-methyl-2-oxo-2-[[(3R)-pyrrolidin-3-yl]amino]ethyl]benzamide formate] | 3.77

same assay, conditions: Acinetobacter baumannii, ATCC17961, 16 h, strain ATCC 17961, OD600 growth over 16 h, read-out: A. baumannii ATCC 17961 IC90

Compound | IC90 [µM]
CCc1cc(Nc2nccn3c(-c4cn(CC(F)F)nc4C(F)(F)F)cnc23)ccc1C(=O)NCCNC(=O)[C@@H]1CC[C@H](N)C1 [Example 497, N-(2-((1R,3S)-3-aminocyclopentane-1-carboxamido)ethyl)-4-((3-(1-(2,2-difluoroethyl)-3-(trifluoromethyl)-1H-pyrazol-4-yl)imidazo[1,2-a]pyrazin-8-yl)amino)-2-ethylbenzamide formate] | 0.183
NCCOCCNC(=O)c1ccc(Nc2nccn3c(-c4cn(CC5CC5)nc4C(F)(F)F)cnc23)cc1F [Example 811, N-(2-(2-aminoethoxy)ethyl)-4-((3-(1-(cyclopropyl-methyl)-3-(trifluoromethyl)-1H-pyrazol-4-yl)imidazo[1,2-a]pyrazin-8-yl)amino)-2-fluorobenzamide hydrochloride] | 0.23
C#CCn1cc(-c2cnc3c(Nc4ccc(C(=O)NC)c(Cl)c4)nccn23)c(C(F)(F)F)n1 [Example 351, 2-chloro-N-methyl-4-[[3-[1-prop-2-ynyl-3-(trifluoromethyl)pyrazol-4-yl]imidazo[1,2-a]pyrazin-8-yl]amino]benzamide] | 0.099
Cc1cc(Nc2nccn3c(-c4c[nH]nc4C(F)(F)F)cnc23)ccc1C(=O)N1CCN(C(=O)[C@@H]2C[C@@H](O)CN2)CC1 [Example 479, [4-[(2S,4R)-4-hydroxypyrrolidine-2-carbonyl]piperazin-1-yl]-[2-methyl-4-[[3-[3-(trifluoromethyl)-1H-pyrazol-4-yl]imidazo[1,2-a]pyrazin-8-yl]amino]phenyl]methanone hydrochloride] | 0.624
Cc1cc(Nc2nccn3c(-c4c[nH]nc4C(F)(F)F)cnc23)ccc1C(=O)NCCOCCN [Example 360, N-[2-(2-aminoethoxy)ethyl]-2-methyl-4-[[3-[3-(trifluoromethyl)-1H-pyrazol-4-yl]imidazo[1,2-a]pyrazin-8-yl]amino]benzamide hydrochloride] | 0.257
O=C(CN1CCN(C(=O)c2ccc(Nc3nccn4c(-c5cn(CC(F)F)nc5C(F)(F)F)cnc34)cc2Cl)CC1)N[C@@H]1CCNC1 [Example 601, (R)-2-(4-(2-chloro-4-((3-(1-(2,2-difluoroethyl)-3-(trifluoromethyl)-1H-pyrazol-4-yl)imidazo [1,2-a]pyrazin-8-yl)amino)benzoyl)piperazin-1-yl)-N-(pyrrolidin-3-yl) acetamide formate] | 0.422
CCc1cc(Nc2nccn3c(-c4cn(CC(=O)O)nc4C(F)(F)F)cnc23)ccc1C(=O)NCCOCCN [Example 271, 2-[4-[8-[4-[2-(2-aminoethoxy)ethylcarbamoyl]-3-ethylanilino]imidazo [1,2-a]pyrazin-3-yl]-3-(trifluoromethyl)pyrazol-1-yl]acetic acid] | 3.07
O=C(NC1CCCNC1)c1ccc(Nc2nccn3c(-c4c[nH]nc4C(F)(F)F)cnc23)cc1Cl (stereo not shown) [Example 414, 2-chloro-N-piperidin-3-yl-4-[[3-[3-(trifluoromethyl)-1H-pyrazol-4-yl]imidazo[1,2-a]pyrazin-8-yl]amino]benzamide] | 4.04
CCc1cc(Nc2nccn3c(-c4cn(CC(F)F)nc4C(F)(F)F)cnc23)ccc1C(=O)NCC(=O)NCCN [Example 729, N-[2-(2-aminoethylamino)-2-oxo-ethyl]-4-[[3-[1-(2,2-difluoroethyl)-3-(trifluoromethyl)pyrazol-4-yl]imidazo[1,2-a]pyrazin-8-yl]amino]-2-ethyl-benzamide] | 0.473
CCc1cc(Nc2nccn3c(-c4cn(COC)nc4C(F)F)cnc23)ccc1C(=O)N1CCNCC1 [Example 801, (4-((3-(3-(difluoromethyl)-1-(methoxymethyl)-1H-pyrazol-4-yl)imidazo[1,2-a]pyrazin-8-yl)amino)-2-ethylphenyl) (piperazin-1-yl)methanone] | 3
NCCCCCCNC(=O)c1ccc(Nc2nccn3c(-c4cn(CC(F)F)nc4C(F)(F)F)cnc23)cc1Cl [Example 826, N-(6-aminohexyl)-2-chloro-4-((3-(1-(2,2-difluoroethyl)-3-(trifluoromethyl)-1H-pyrazol-4-yl)imidazo[1,2-α]pyrazin-8-yl)amino)benzamide hydrochloride] | 0.11
O=C(NC1CC(NC(=O)[C@@H]2C[C@@H](O)CN2)C1)c1ccc(Nc2nccn3c(-c4c[nH]nc4C(F)(F)F)cnc23)cc1Cl (stereo partly drawn) [Example 370, (2S,4R)-N-[3-[[2-chloro-4-[[3-[3-(trifluoromethyl)-1H-pyrazol-4-yl]imidazo[1,2-a]pyrazin-8-yl]amino]benzoyl]amino]cyclobutyl]-4-hydroxypyrrolidine-2-carboxamide] | 0.177
C#CCn1cc(-c2cnc3c(Nc4ccc(C(=O)N5CCN(C(=O)[C@@H]6C[C@@H](O)CN6)CC5)c(CC)c4)nccn23)c(C(F)F)n1 [Example 785, (4-(4-((3-(3-(difluoromethyl)-1-(prop-2-yn-1-yl)-1H-pyrazol-4-yl)imidazo[1,2-a]pyrazin-8-yl)amino)-2-ethylbenzoyl)piperazin-1-yl)((2S,4R)-4-hydroxypyrrolidin-2-yl)methanone] | 1.32
CCc1cc(Nc2nccn3c(-c4c[nH]nc4C(F)(F)F)cnc23)ccc1C(=O)NCCOC[C@@H](C)N [Example 204, N-[2-[(2R)-2-aminopropoxy]ethyl]-2-ethyl-4-[[3-[3-(trifluoromethyl)-1H-pyrazol-4-yl]imidazo[1,2-a]pyrazin-8-yl]amino]benzamide] | 0.256
CCc1cc(Nc2nccn3c(-c4cn(CCF)nc4C(F)(F)F)cnc23)ccc1C(=O)N1CCN(C(=O)C2CCNCC2)CC1 [Example 71, [2-ethyl-4-[[3-[1-(2-fluoroethyl)-3-(trifluoromethyl)pyrazol-4-yl]imidazo[1,2-a]pyrazin-8-yl]amino]phenyl]-[4-(piperidine-4-carbonyl)piperazin-1-yl]methanone] | 0.593
Cc1cc(Nc2nccn3c(-c4cn(CC(F)F)nc4C(F)(F)F)cnc23)cc(F)c1C(=O)N1CCN(C(=O)[C@H](C)N)CC1 [Example 664, (S)-2-amino-1-(4-(4-((3-(1-(2,2-difluoroethyl)-3-(trifluoromethyl)-1H-pyrazol-4-yl)imidazo [1,2-a]pyrazin-8-yl)amino)-2-fluoro-6-methylbenzoyl)piperazin-1-yl)propan-1-one] | 0.286

same assay, conditions: strain ATCC 17961, OD600 growth over 16 h, read-out: A. baumannii ATCC 17961 IC90

Compound | IC90 [µM]
C=CCn1cc(-c2cnc3c(Nc4ccc(C(=O)NCCCN)c(CC)c4)nccn23)c(C(F)(F)F)n1 [Example 48, N-(3-aminopropyl)-2-ethyl-4-[[3-[1-prop-2-enyl-3-(trifluoromethyl)pyrazol-4-yl]imidazo[1,2-a]pyrazin-8-yl]amino] benzamide] | 0.117
NCCOCCNC(=O)c1ccc(Nc2nccn3c(-c4cn(CC(F)F)nc4C(F)(F)F)cnc23)cc1Cl [Example 252, N-[2-(2-aminoethoxy)ethyl]-2-chloro-4-[[3-[1-(2,2-difluoroethyl)-3-(trifluoromethyl)pyrazol-4-yl]imidazo[1,2-a]pyrazin-8-yl]amino] benzamide] | 0.169
